Source: patent US20190119298A1, “FUSED 3-PHENYLTETRAMIC ACID DERIVATIVES HAVING HERBICIDAL ACTION” (Bayer CropScience Aktiengesellschaft, priority 2016, published 2019)

Assays:
Type in all cases: in vivo
Echinochloa crus-galli [1] = assay: Pre-emergence herbicidal effect; details: 320 g/ha, scored visually after 3 weeks vs untreated controls, 100% = plants have died
How it was run: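 Wettable powder or emulsion concentrate sprayed onto soil covering freshly sown seeds in sandy loam, 600 to 800 L/ha water with 0.2% wetting agent. Pots kept in greenhouse. Damage scored visually after 3 weeks against untreated controls, 0-100% activity.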

Lolium multiflorum [2] = assay: Post-emergence herbicidal effect; details: one-leaf stage, 320 g/ha, assessed visually after about 3 weeks, 100% = plants have died
Protocol: (§1) LOLMU: Lolium multiflorum Seeds of monocotyledonous and dicotyledonous weed and crop plants are laid out in sandy loam soil in wood-fibre pots, covered with soil and cultivated in a greenhouse under good growth conditions. 2 to 3 weeks after sowing, the test plants are treated at the one-leaf stage. The compounds of the invention, formulated in the form of wettable powders (WP) or as emulsion concentrates (EC), are then sprayed onto the green parts of the plants as aqueous suspension or emulsion at a water application rate equating to 600 to 800 L/ha with addition of 0.2% wetting agent. After the test plants have been left to stand in the greenhouse under optimal growth conditions for about 3 weeks, the action of the preparations is assessed visually in comparison to untreated controls (herbicidal action in percent (%): 100% activity=the plants have died, 0% activity=like control plants).

Alopecurus myosuroides [3] = assay: Pre-emergence herbicidal effect; details: 320 g/ha, scored visually after 3 weeks vs untreated controls, 100% = plants have died
How it was run: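 Seeds sown in sandy loam and covered; WP- or EC-formulated compounds sprayed onto covering soil at 600–800 L/ha water with 0.2% wetting agent. Greenhouse-grown; damage scored visually after 3 weeks versus untreated controls (100% = plants died, 0% = like control).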

Echinochloa crus-galli [4] = assay: Post-emergence herbicidal effect; details: one-leaf stage, 320 g/ha, assessed visually after about 3 weeks, 100% = plants have died
How it was run: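 Greenhouse plants in sandy loam were sprayed at the one-leaf stage with WP or EC formulations at 600 to 800 L/ha water with 0.2% wetting agent. After about 3 weeks, damage was scored visually in % against untreated controls (100% = dead).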

Setaria viridis [5] = assay: Pre-emergence herbicidal effect; details: 320 g/ha, scored visually after 3 weeks vs untreated controls, 100% = plants have died
How it was run: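 Pre-emergence: WP or EC formulations sprayed onto the soil surface over sown seeds in sandy loam at 600–800 L/ha water with 0.2% wetting agent. Plants kept in a greenhouse; damage scored visually after 3 weeks as % activity versus untreated controls (100% = dead).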

Lolium multiflorum [6] = assay: Pre-emergence herbicidal effect; details: 320 g/ha, scored visually after 3 weeks vs untreated controls, 100% = plants have died
How it was run: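 Seeds sown in sandy loam and covered; compounds as WP or EC applied to the soil surface pre-emergence at 600 to 800 L/ha water with 0.2% wetting agent. Greenhouse growth for 3 weeks, then damage scored visually versus untreated controls (100% = plants dead, 0% = like control).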

Setaria viridis [7] = assay: Post-emergence herbicidal effect; details: one-leaf stage, 320 g/ha, assessed visually after about 3 weeks, 100% = plants have died
How it was run: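 Greenhouse plants grown in sandy loam were sprayed at the one-leaf stage, 2-3 weeks after sowing. Compounds were applied as WP or EC formulations in 600-800 L/ha water plus 0.2% wetting agent. About 3 weeks later, damage was scored visually against untreated controls (0% = like control, 100% = dead plants).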

Avena fatua [8] = assay: Post-emergence herbicidal effect; details: one-leaf stage, 320 g/ha, assessed visually after about 3 weeks, 100% = plants have died
How it was run: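 Greenhouse-grown plants in sandy loam treated at one-leaf stage, 2–3 weeks after sowing, by spraying WP or EC formulations as aqueous suspension/emulsion at 600–800 L/ha water with 0.2% wetting agent. After about 3 weeks, effect scored visually versus untreated controls (0% = like control, 100% = plants dead).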

Avena fatua [9] = assay: Pre-emergence herbicidal effect; details: 320 g/ha, scored visually after 3 weeks vs untreated controls, 100% = plants have died
How it was run: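 Weed and crop seeds sown in sandy loam were treated pre-emergence on the soil surface with WP or EC formulations at a water rate of 600 to 800 L/ha plus 0.2% wetting agent. Plants grown in a greenhouse; damage scored visually after 3 weeks as percent activity relative to untreated controls (100% = dead).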

Alopecurus myosuroides [10] = assay: Post-emergence herbicidal effect; details: one-leaf stage, 320 g/ha, assessed visually after about 3 weeks, 100% = plants have died
Protocol: as §1, with “ALOMY: Alopecurus myosuroides” for “LOLMU: Lolium multiflorum”

Row | SMILES | Pre-emergence action ECHCG (herbicidal activity in percent) (Echinochloa crus-galli [1]) | Post-emergence effectiveness LOLMU (herbicidal action in percent) (Lolium multiflorum [2]) | Pre-emergence action ALOMY (herbicidal activity in percent) (Alopecurus myosuroides [3]) | Post-emergence effectiveness ECHCG (herbicidal action in percent) (Echinochloa crus-galli [4]) | Pre-emergence action SETVI (herbicidal activity in percent) (Setaria viridis [5]) | Pre-emergence action LOLMU (herbicidal activity in percent) (Lolium multiflorum [6]) | Post-emergence effectiveness SETVI (herbicidal action in percent) (Setaria viridis [7]) | Post-emergence effectiveness AVEFA (herbicidal action in percent) (Avena fatua [8]) | Pre-emergence action AVEFA (herbicidal activity in percent) (Avena fatua [9]) | Post-emergence effectiveness ALOMY (herbicidal action in percent) (Alopecurus myosuroides [10])
1 | CCOC(=O)OC1=C(c2c(CC)cc(C)cc2CC)C(=O)N2CCOCCC12 (centres unmarked) [Ib-1-2] | 100% | 100% | 100% | 100% | 100% | 100% | 100% | 100% | 100% | 100%
2 | CCc1cc(Cl)cc(OC)c1C1=C(O)C2CCOCCN2C1=O (centres unmarked) [Ia-1-6] | 100% | 100% | 100% | 100% | 100% | 100% | 100% | 100% | 100% | 100%
3 | CCc1cc(Cl)cc(OC)c1C1=C(OC(=O)C(C)(C)C)C2CCOCCN2C1=O (centres unmarked) [Ib-1-18] | 100% | 100% | 100% | 100% | 100% | 100% | 100% | 100% | 100% | 100%
4 | CCc1cc(C)cc(C)c1C1=C(OC(=O)C(C)(C)C)C2CCOCCN2C1=O (centres unmarked) [Ib-1-8] | 100% | 100% | 100% | 100% | 100% | 100% | 100% | 100% | 100% | 100%
5 | CCc1cc(C)cc(C)c1C1=C(O)C2CCOCCN2C1=O (centres unmarked) [Ia-1-2] | 100% | 100% | 100% | 100% | 100% | 100% | 100% | 100% | 100% | 100%
6 | Cc1cc(C)c(C2=C(O)C3CCOCCN3C2=O)c(C)c1 (centres unmarked) [Ia-1-1] | 100% | 100% | 100% | 100% | 90% | 100% | 100% | 100% | 100% | 100%
7 | CCc1cc(C)cc(CC)c1C1=C(O)C2CCOCCN2C1=O (centres unmarked) [Example Ia-1-3, 8-(2,6-Diethyl-4-methylphenyl)-9-hydroxy-1,4,5,9a-tetrahydropyrrolo[1,2-d][1,4]oxazepin-7(2H)-one] | 100% | 100% | 100% | 100% | 100% | 100% | 100% | 100% | 100% | 100%
8 | CCc1cccc(C)c1C1=C(OC(=O)C(C)(C)C)C2CCOCCN2C1=O (centres unmarked) [Ib-1-14] | 100% | 100% | 80% | 100% | 100% | 100% | 100% | 100% | 90% | 90%
9 | CCc1cc(C)cc(CC)c1C1=C(O)C2COCCCN2C1=O (racemic) [Ia-2-2] | 100% | 100% | 80% | 100% | 100% | 100% | 100% | 100% | 90% | 100%
10 | CCc1cc(C)cc(CC)c1C1=C(OC(=O)C(C)(C)C)C2CCOCCN2C1=O (centres unmarked) [Ib-1-3] | 100% | 100% | 100% | 100% | 100% | 100% | 100% | 100% | 100% | 100%
11 | CCc1cc(C)cc(C)c1C1=C(OC(=O)OC)C2CCOCCN2C1=O (centres unmarked) [Ib-1-6] | 100% | 100% | 100% | 100% | 100% | 100% | 100% | 100% | 100% | 100%
